From patent US20250332176A1, “TREATMENT FOR FIBROSIS AND INHIBITION OF FIBROSIS” (GALMED RESEARCH AND DEVELOPMENT LTD, priority 2022, published 2025)
Like-named read-outs stand apart in the source and are kept apart here.

What was measured:
Format in all cases: in vivo, human
[1] = test system: pts with pre-diabetes or diabetes and biopsy-proven NASH; assay: Global phase 2b randomized placebo-controlled ARREST trial, one-year results
Procedure: Overweight/obese pts with pre-diabetes or diabetes and biopsy-proven NASH (with NAS≥4; F<4) were included. Liver biopsy and liver fat measurement by MR spectroscopy (LF-MRS) were performed at baseline and week 52. Both read centrally. The primary endpoint was the absolute change from baseline in LF-MRS (600 mg vs. placebo, PLB; mixed model repeated measures). Key secondary endpoints included: NASH resolution without fibrosis worsening, ≥1 stage fibrosis reduction without NASH worsening and ALT reduction. 247 pts from 11 countries (US, Europe, Latin America) were randomized 2:2:1 to Aramchol™ 400 mg QD (N=101), 600 mg QD (N=98) or PLB (N=48). At baseline: 65% females, mean age 54.4 yrs, BMI 32.7 kg/m2, HbA1c 6.6%±1.0% (mean±SD), LF-MRS 28.5%±11.7% (mean±SD); 60% fibrosis stage 2-3 and NAS 5.12±1.00 (mean±SD). 89% of pts completed the study. The results of the study are summarized in FIGS. 16A-16B to FIGS.-20A-20B.

[2] = Phase 2 ARAMCHOL 003 repeat dose plasma exposure in patients; conditions: for AUC/Dose / Relative bioavailability (AUC/Dose normalized to 30 mg HV data) / AUC at 84 day: patients; for AUC/Dose / Relative bioavailability (AUC/Dose normalized to 30 mg HV data): D84; for AUC at 84 day: human, plasma, oral
Procedure: (§1) Table 1 summarizes the reported plasma exposure from three studies-single dose Phase I in healthy volunteers (30-900 mg, AUC=AUCinf); Phase II ARAMCHOL™ 003 repeat dose study (AUC on D84 from 100 & 300 mg QD), Phase IIb Cmin on D84 (400 and 600 mg QD).
Exposure in patients is also sub-proportional from 100 to 300 mg. […] This may be due to the use of a tablet formulation in the patient study versus the powder/suspension in healthy volunteers or may simply reflect a high degree of inter-subject variability (typically exposure CV is >50% within a study group).

[3] = Phase 2b steady state trough (Cmin) plasma concentration in patients; conditions: for AUC/Dose / Relative bioavailability (AUC/Dose normalized to 30 mg HV data) / concentration at 84 day / AUC: patients; for AUC/Dose / Relative bioavailability (AUC/Dose normalized to 30 mg HV data) / concentration at 84 day: D84; for concentration at 84 day: read-out: SS Cmin; for AUC: estimated from observed Cmin on D84*24 h
From the text: Blood sample for Aramchol™ trough level will be collected (pre-dose) from patients in Israel at baseline (visit 2) week 4 (visit 4), week 12 (visit 6), week 24 (visit 7), week 40 (visit 9), end of treatment (visit 10) and follow up (visit 11). At selected sites in Mexico, USA and Hong Kong one blood sample will be collected (pre-dose) on visit 4 (up to 10 subjects per country) to test for trough Aramchol™ blood level differences between populations (e.g., African American, Asian, Hispanic).
as §1
The steady state (day 84) Cmin in patients at 400 mg and 600 mg has been measured. […] Again, this may reflect inter-subject variability or a difference in the excipients used in the tablets.

AUC/Dose ([2]; 100 mg QD repeat dose): 197 ng/mL · h/(mg/kg) | Relative bioavailability (AUC/Dose normalized to 30 mg HV data) ([2]; 100 mg QD repeat dose): 0.50 | steady-state AUC in patients lower than AUCinf from a single dose in healthy volunteers ([2]; 300 mg): approximately 2 fold | AUC/Dose ([2]; 300 mg QD repeat dose): 110 ng/mL · h/(mg/kg) | Relative bioavailability (AUC/Dose normalized to 30 mg HV data) ([2]; 300 mg QD repeat dose): 0.28 | AUC at 84 day ([2]; 100 mg QD repeat dose, AUC on D84): 19700 ng·h/mL | AUC at 84 day ([2]; 300 mg QD repeat dose, AUC on D84 (steady-state)): 33000 ng·h/mL | exposure CV within a study group ([2]; typically, inter-subject variability): > 50% | AUC/Dose ([3]; 400 mg QD): 172 ng/mL · h/(mg/kg) | Relative bioavailability (AUC/Dose normalized to 30 mg HV data) ([3]; 400 mg QD): 0.43 | AUC/Dose ([3]; 600 mg QD): 144 ng/mL · h/(mg/kg) | Relative bioavailability (AUC/Dose normalized to 30 mg HV data) ([3]; 600 mg QD): 0.36 | half-life ([3]; human, plasma, oral): > 24 h | concentration at 84 day ([3]; human, plasma, oral, 400 mg QD): 2860 ng/mL | AUC ([3]; human, plasma, oral, 400 mg QD): 68600 ng·h/mL | concentration at 84 day ([3]; human, plasma, oral, 600 mg QD): 3610 ng/mL | AUC ([3]; human, plasma, oral, 600 mg QD): 86700 ng·h/mL
Structure (SMILES): CCCCCCCCCCCCCCCCCCCC(=O)N[C@H]1CC[C@@]2(C)[C@@H](C1)C[C@@H](O)[C@@H]1[C@@H]2C[C@H](O)[C@]2(C)[C@@H]([C@H](C)CCC(=O)O)CC[C@@H]12 [Aramchol™, 3β-arachidylamido-7α, 12α-dihydroxy-5β-cholan-24-oic acid]
pts progressed to cirrhosis ([1]; 400 mg QD, week 52): 7.5% | pts with ≥5% absolute reduction in liver fat ([1]; 400 mg QD, week 52): 37% | liver fat by MR spectroscopy (LF-MRS), absolute change from baseline vs PLB ([1]; 400 mg QD, week 52, p=0.045): significantly reduced | effect on ballooning (improvement ≥1 point; ballooning 0 at end of study) ([1]; 600 mg): statistically significant effect | pts progressed to cirrhosis ([1]; 600 mg QD, week 52): 1.3% | liver fat by MR spectroscopy (LF-MRS), absolute change from baseline vs PLB ([1]; 600 mg QD, week 52, p<0.066): significantly reduced | pts with NASH resolution without fibrosis worsening ([1]; 600 mg QD, week 52, vs 5.0% PLB): 16.7% | pts with ≥1 stage fibrosis reduction without NASH worsening ([1]; 600 mg QD, week 52, vs 17.5% PLB (p=0.21)): 29.5% | pts with ≥5% absolute reduction in liver fat ([1]; 600 mg QD, week 52, vs 24% on PLB (p<0.028)): 47% | OR for NASH resolution without fibrosis worsening vs PLB ([1]; 600 mg QD, 95% CI: 0.99-22.66, p=0.051): 4.74 | Discontinuation due to adverse events (AE) ([1]; 1-year treatment): < 5% | serious AE, pts ([1]; 1-year treatment, without a difference between arms): 10% | ALT vs PLB ([1]; both doses (400 mg and 600 mg QD), p<0.001, dose response): significantly reduced | HbA1c vs PLB ([1]; both doses (400 mg and 600 mg QD), p<0.007, dose response): significantly reduced | AST vs PLB ([1]; both doses (400 mg and 600 mg QD), p=0.002, dose response): significantly reduced | safety and tolerability ([1]; one year): excellent safety and tolerability
